Laboratory results: patent publication US7491827B2, “Aryl sulfonamides useful as inhibitors of chemokine receptor activity” (Millennium Pharmaceuticals, Inc., priority 2003, dated 2009)

molecular target: T1, cloned human CCR8 receptor stably expressed in L1.2 cells (Homo sapiens, UniProt P51685); test: whole cell binding screen: inhibition of biotinylated human I309 binding to CCR8 (FMAT 8100 HTS); conditions: L1.2/hCCR8 cells, biotinylated human I-309, 10 point concentration response starting at 10 μM; read-out: Ki of compounds to inhibit I-309 binding to CCR8
T1 construct: expressed in transfected cells
Outline: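 L1.2 murine pre-B cells stably expressing human CCR8 (4.0×10^5 cells/mL) in HBSS/HEPES/fatty-acid-free BSA/azide buffer were mixed with biotinylated human I309 and compounds for 0.5 h, read by FMAT fluorescence. 10-point curves from 10 μM final; percent inhibition normalized to no-inhibitor and 100 nM unlabeled I309 controls.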

T1 sequence (P51685 whole entry): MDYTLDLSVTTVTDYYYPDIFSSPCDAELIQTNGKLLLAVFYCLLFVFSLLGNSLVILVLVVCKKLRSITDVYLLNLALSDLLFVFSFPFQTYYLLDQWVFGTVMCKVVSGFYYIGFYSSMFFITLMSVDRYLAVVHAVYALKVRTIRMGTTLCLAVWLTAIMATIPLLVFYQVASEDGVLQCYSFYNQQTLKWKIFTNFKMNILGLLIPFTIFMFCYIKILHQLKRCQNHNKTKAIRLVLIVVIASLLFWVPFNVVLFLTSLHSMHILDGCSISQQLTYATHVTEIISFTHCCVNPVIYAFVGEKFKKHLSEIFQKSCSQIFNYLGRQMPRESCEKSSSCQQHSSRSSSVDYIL

| SMILES | Ki [µM] |
| --- | --- |
| COc1ccc(NS(=O)(=O)c2ccc(NC(=O)c3ccncc3)c3ccccc23)cc1 [Compound B-8, N-[4-(4-Methoxy-phenylsulfamoyl)-naphthalen-1-yl]-isonicotinamide] | < 1 |
| O=C(Nc1ccc(S(=O)(=O)Nc2ccncc2)c2ccccc12)c1ccccc1 [Compound A-14, N-[4-(Pyridin-4-ylsulfamoyl)-naphthalen-1-yl]-benzamide] | < 0.5 |
| CCOC(=O)N1CCC(NS(=O)(=O)c2cccc3c(NC(=O)c4ccc(C)s4)cccc23)CC1 [Compound H-16, 4-{5-[(5-Methyl-thiophene-2-carbonyl)-amino]-naphthalene-1-sulfonylamino}-piperidine-1-carboxylic acid ethyl ester] | < 0.5 |
| O=C(Nc1ccc(S(=O)(=O)NC2CCNCC2)c2ccccc12)C1CCCCC1 [Compound D-14, Cyclohexanecarboxylic acid [4-(piperidin-4-ylsulfamoyl)-naphthalen-1-yl]-amide] | < 0.5 |
| CCOC(=O)N1CC[C@H](NS(=O)(=O)c2ccc(N)c3ccccc23)[C@H](C)C1 (racemic) [Compound D-2, (±)-(cis)4-(4-amino-naphthalene-1-sulfonylamino)-3-methyl-piperidine-1-carboxylic acid ethyl ester] | < 30 |
| Cc1ccccc1C(=O)Nc1ccc(S(=O)(=O)NC2CCN(C(=O)CN(C)C)CC2)c2ccccc12 [Compound C-55, N-{4-[1-(2-Dimethylamino-acetl)-piperidin-4-ylsulfamoyl]-naphthalen-1-yl}-2-methyl-benzamide] | < 0.5 |
| CCOC(=O)N1CCC(NS(=O)(=O)c2ccc(CNC3CCN(C)CC3)c3ccccc23)CC1 [Compound G-25, 4-{4-[(1-Methyl-piperidin-4-ylamino)-methyl]-naphthalene-1-sulfonylamino}-piperidine-1-carboxylic acid ethyl ester] | < 30 |
| CCOC(=O)N1CCC(NS(=O)(=O)c2ccc(CNCc3ccc(OC)cc3)c3ccccc23)CC1 [Compound G-10, 4-{4-[(4-Methoxy-benzylamino)-methyl]-naphthalene-1-sulfonylamino}-piperidine-1-carboxylic acid ethyl ester] | < 0.5 |
| Cc1ccccc1C(=O)Nc1ccc(S(=O)(=O)N[C@H]2CCN(C(=O)C(C)(C)N)C[C@H]2C)c2ccccc12 [Compound J-8, (3R, 4S)-N-{4-[1-(2-Amino-2-methyl-propionyl)-3-methyl-piperidin-4-ylsuffamoyl]-naphthalen-1-yl}-2-methyl-benzamide] | < 0.5 |
| Cc1ccccc1C(=O)Nc1ccc(S(=O)(=O)N[C@H]2CCNC[C@H]2CC(C)C)c2ccccc12 [Compound J-52] | < 0.5 |
| CC(C)(C)OC(=O)N1CCC(NS(=O)(=O)c2ccc(NC(=O)C3CCCC3)c3ccccc23)CC1 [Compound B-16, 4-[4-(Cyclopentanecarbonyl-amino)-naphthalene-1-sulfonylamino]-piperidine-1-carboxylic acid tert-butyl ester] | < 1 |
| CCOC(=O)N1CCC(NS(=O)(=O)c2cccc3c(C(=O)Nc4cccnc4)cccc23)CC1 [Compound H-35, 4-[5-(Pyridin-3-ylcarbamoyl)-naphthalene-1-sulfonylamino]-piperidine-1-carboxylic acid ethyl ester] | < 1 |
| CCOC(=O)N1CCC(NS(=O)(=O)c2cccc3c(CNC4CCCCC4)cccc23)CC1 [Compound H-46, 4-(5-Cyclohexylainnomethyl-naphthalene-1-sulfonylainino)-piperidine-1-carboxylic acid ethyl ester] | < 0.5 |
| O=C(Nc1ccc(S(=O)(=O)Nc2ccc(C(F)(F)F)cc2)c2ccccc12)c1ccccc1 [Compound A-30, N-[4-(4-Trifluoromethyl-phenylsulfamoyl)-naphthalen-1-yl]-benzamide] | < 30 |
